No end group written: not given here.

These results are taken from US12345641B2, “Fluorescence quenching immunoassay” (IDEXX Laboratories, Inc., priority 2020, dated 2025).

Series [1] is described as follows: Absorption and emission spectra of fluoresceins and SDMA conjugates (Example 33). It counts as physicochemical. Conditions: PBS buffer. From the text:
The maximum absorption of fluorescein (Fl) in PBS buffer is at 489 nm and the maximum fluorescence emission is at 515 nm. When the fluorescein molecule is conjugated with an SDMA molecule via a —CH2NH— linker (i.e., to provide SDMA-Fl), its maximum absorption and emission are shifted to 495 nm and 525 nm, respectively. When the fluorescein molecule is substituted by fluorine at the 2′ and 7′ positions (i.e., to provide DFF) there is no any change in the maximum absorption and emission compared to unsubstituted fluorescein. When the fluorescein molecule is substituted by chloride at the 2′ and 7′ positions (i.e., to provide DCF) the maximum absorption and emission are red-shifted to 500 nm and 525 nm, respectively. Also conjugating DFF or DCF to SDMA via a —CH2NH— linker (i.e., to provide SDMA-DFF and SDMA DCF, respectively) results in the maximum absorption and emission being red-shifted. The maximum absorption and emission wavelengths of fluorescein (FL), 2′,7′-difluorofluorescien (DFF), 2′,7′-dichlorofluorescien (DCF), and their conjugates with SDMA via a —CH2NH— linker (i.e., SDMA-Fl (i.e., structure A3), SDMA-DFF, and SDMA-DCF) are listed in the Table provided below. The absorption spectra of DFF, SDMA-DFF, DCF, SDMA-DCF, Fl, and SDMA-FL are depicted in FIG. 25A and the emission spectra of SDMA-DFF, SDMA-DCF, Fl, and SDMA-FL are depicted in FIG. 25B.

For the next series, the system named is anti-T4 antibody. Put plainly: Maximum percentage fluorescence quenching of T2-F, T3-F, T4-F by anti-T4 antibody with and without quencher label (Example 27 table). It counts as binding. The method, then:
In another experiment, tracer T2-F, T3-F, or T4-F was dissolved in DMSO to provide a DMSO solution at a tracer concentration of 1 mM. The DMSO solution was then diluted with phosphate buffered saline (“PBS”) to provide a stock solution of each tracer at a concentration of 10 μM. Monoclonal anti-T4-Mab or anti-T4-Mab conjugated to a quencher (Cy3-Ab, IRdyeQC1-Ab, Cy5-Ab, BHQ1-Ab) were serially diluted in PBS to provide solutions having an Anti-T4-Mab or anti-T4-Mab conjugated to quencher at concentration ranging from 0 to 2 μM. In a 96 well black assay plate containing the serially diluted Anti-T4-Mab or anti-T4-Mab conjugated to quencher (95 μL) was added the tracer T2-F, T3-F, or T4-F solution (5 μL), mixed well, and incubated for 30 min and the fluorescence intensities then recorded at an excitation wavelength of 485 nm and an emission wavelength of 520 nm. The results of maximum percentage fluorescence quenching for different tracers and quencher-modified antibodies are provided in the following Table: […]

In the next series the test system is anti-T4-Mab. Put plainly: Fluorescence of T3 tracers and anti-T4-Mab in the presence of T4 (Example 20). The series is classed as binding. Particulars: PBS, tracer and antibody equimolar. The protocol: Similar solutions were prepared and the fluorescence measured except that the T3-F was replaced with T3-5-F, T3-E-F and T3-FITC.
The subject of series [2] is Monoclonal anti-NT-proBNP antibody (ADX-15 Mab). Put plainly: Fluorescence quenching of canine NT-proBNP peptide-Fl/DFF conjugates by anti-NT-proBNP Mab and Ab-BHQ10 (Example 52). It counts as binding. Conditions: for Percentage Fluorescence Quenching, DFF Conjugate, Ab-BHQ10 / Percentage Fluorescence Quenching, DFF Conjugate, Ab: NT-proBNP peptide-difluorofluorescein conjugate; for Percentage Fluorescence Quenching, DFF Conjugate, Ab-BHQ10 / Percentage Fluorescence Quenching, F1 Conjugate, Ab-BHQ10: mAb-BHQ10; for Percentage Fluorescence Quenching, DFF Conjugate, Ab-BHQ10 / Percentage Fluorescence Quenching, DFF Conjugate, Ab / Percentage Fluorescence Quenching, F1 Conjugate, Ab-BHQ10: molar ratio of 1:1; for Percentage Fluorescence Quenching, DFF Conjugate, Ab-BHQ10 / Percentage Fluorescence Quenching, DFF Conjugate, Ab / Percentage Fluorescence Quenching, F1 Conjugate, Ab / Percentage Fluorescence Quenching, F1 Conjugate, Ab-BHQ10: No = No Quenching; for Percentage Fluorescence Quenching, F1 Conjugate, Ab / Percentage Fluorescence Quenching, F1 Conjugate, Ab-BHQ10: NT-proBNP peptide-fluorescein conjugate; for Percentage Fluorescence Quenching, F1 Conjugate, Ab: Ab/Conjugate molar ratio of 1:1; for quenching of peptide-Fl or -DFF conjugates upon addition of antibody or antibody-BHQ10: any molar ratio from 1:1 to 8:1; for fluorescence quenching: ratio of 8:1; for fluorescence quenching reached (up to) by anti-NT-proBNP antibody: unmodified antibody, titration 0 to 800 nM. The protocol: NT-proBNP peptide-fluorescein (Fl) or -difluorofluorescein (DFF) conjugates were dissolved in DMSO (0.4 mM) and diluted with PBS to provide a stock solution (100 nM). Monoclonal anti-NT-proBNP antibody (ADX-15 Mab, IDEXX Laboratories Inc. of Westbrook, ME) (6.84 mg/ml) was serially diluted in PBS buffer to provide solutions having an antibody concentration ranging from 0 to 800 nM in PBS. In a 96 well black assay plate containing the serially diluted antibody solution (50 μL) was added the P1-Fl or P1-DFF, or other peptide-Fl or Peptide-DFF solution (50 μL), mixed well, incubated for 30 min and the fluorescence intensities recorded (excitation at 485 nm and emission at 520 nm). The results are provided in FIG. 47, FIG. 48, and Table 2.

The subject of series [3] is Monoclonal anti-CysB antibody (7C2). Put plainly: Fluorescence quenching of canine CysB peptide-Fl/DFF conjugates by anti-CysB Mab or Mab-BHQ10 (Example 51). It counts as binding, mouse. The method, then: CysB peptide-fluorescein (Fl) or -difluorofluorescein (DFF) conjugates were dissolved in DMSO (0.5 mM) and diluted with Tris Buffer ([…] at pH8.0) to provide a stock solution (100 nM). Monoclonal anti-CysB antibody (7C2, raised against a peptide having the amino acid sequence of SEQ ID NO: 14) (8 mg/ml) was serially diluted in PBS buffer to provide solutions having an Anti-CysB-Mab concentration ranging from 0 to 800 nM in Tris buffer (50 mM at pH 8.0 with 0.5% sarkosyl (sodium lauroyl sarcosinate)). In a 96-well black assay plate containing the serially diluted Anti-CysB-Mab solution (50 μL) was added the peptide-Fl or peptide-DFF solution (50 μL), mixed well, incubated for 30 min and the fluorescence intensities recorded. The results are provided in FIG. 38, 39, 40, and Table 1.

A further series relates to anti-CysB Mab. Put plainly: Peptide/full length canine CysB protein dose response in Tris buffer and serum (Example 51). It counts as binding, mouse. The protocol: A mixture of CysB P6-Fl or P6-DFF in Tris buffer with 0.1% Tween 20 (200 nM, 25 μL) and anti-Cys-Mab in Tris buffer with 0.1% Tween 20 (400 nM, 25 μL) was incubated at room temperature for 30 min in the wells of a 96 well black assay plate. A series of CysB peptides P6, P7, and P14 standard solutions having peptide concentrations ranging from 0 to 3200 nM (50 μL) were then added to the mixtures of the P6-Fl or P6-DFF and anti-CysB Mab in Tris Buffer. The plate was then incubated for 30 min at room temperature and the fluorescence intensities recorded at an excitation of 485 nm and an emission of 520 nm. The results are shown in FIG. 43, FIG. 44, FIG. 45, and FIG. 46.

As for `O=C1OC2(c3cc(Cl)c(O)cc3Oc3cc(O)c(Cl)cc32)c2ccccc21` [DCF, 2′,7′-dichlorofluorescien], in series [1], the “Max Absorption” value is given as 500 nm and the “Max Emision” value was found to be 525 nm.
Consider `O=C1OC2(c3cc(F)c(O)cc3Oc3cc(O)c(F)cc32)c2ccccc21` [DFF, 2′,7′-difluorofluorescien], for which, in series [1], the “Max Absorption” value came out at 489 nm and the “Max Emision” value turned out to be 515 nm.
For `O=C(O)c1ccccc1-c1c2ccc(=O)cc-2oc2cc(O)ccc12` [Fl, fluorescein], in series [1], the “Max Absorption” value came to 489 nm and the “Max Emision” value is reported as 515 nm. In series [1] (listed as FI), the “Max Absorption” value worked out at 483 nm.
With `CNC(=NCCCC(N)C(=O)NCc1c(O)c(Cl)cc2c(-c3ccccc3C(=O)O)c3cc(Cl)c(=O)cc-3oc12)NC` (stereo not shown) [SDMA-DCF], in series [1], the “Max Absorption” value is 510 nm and the “Max Emision” value was 535 nm.
In the case of `O=C(O)c1ccccc1-c1c2ccc(=O)cc-2oc2c(CNC(Cc3cc(I)c(Oc4ccc(O)cc4)c(I)c3)C(=O)O)c(O)ccc12` (stereo not shown) [T2-F], in the series with anti-T4 antibody (anti-T4-Mab conjugated to BHQ1), the “Percentage of fluorescence quenching, BHQ1-Ab” value came out at 11%. Also, the “Percentage of fluorescence quenching, Cy5-Ab” value in the series with anti-T4 antibody (anti-T4-Mab conjugated to Cy5) came out at 16%. Also, in the series on anti-T4 antibody (anti-T4-Mab conjugated to IRdyeQC1), the “Percentage of fluorescence quenching, IRdyeQC1-Ab” value was 8%. The “Percentage of fluorescence quenching, Ab” value in the series on anti-T4 antibody (anti-T4-Mab without quencher) is listed as 22%.
Take `O=C(NC(Cc1cc(I)c(Oc2ccc(O)c(I)c2)c(I)c1)C(=O)O)c1ccc(-c2c3ccc(=O)cc-3oc3cc(O)ccc23)c(C(=O)O)c1` (stereo not shown) [T3-5-F, T3-5-Fluorescein]: in the series with anti-T4-Mab, the “fluorescence quenching by anti-T4-Mab” value was “not quenched”.
As to `O=C(O)c1ccccc1-c1c2ccc(=O)cc-2oc2c(CNCCNC(Cc3cc(I)c(Oc4ccc(O)c(I)c4)c(I)c3)C(=O)O)c(O)ccc12` (stereo not shown) [T3-E-F, T3-Ethyl-Fluorescein], the “fluorescence quenching by anti-T4-Mab” value with anti-T4-Mab is listed as “quenched”.
Consider `O=C(O)c1cc(NC(=S)NC(Cc2cc(I)c(Oc3ccc(O)c(I)c3)c(I)c2)C(=O)O)ccc1-c1c2ccc(=O)cc-2oc2cc(O)ccc12` (stereo not shown) [T3-FITC], for which the “fluorescence quenching by anti-T4-Mab” value with anti-T4-Mab is reported as “not quenched”.
Regarding AEQLAL [P2], in series [2], the “Percentage Fluorescence Quenching, DFF Conjugate, Ab-BHQ10” value is on record as “No”; the “Percentage Fluorescence Quenching, DFF Conjugate, Ab” value was “No”; the “Percentage Fluorescence Quenching, F1 Conjugate, Ab” value is given as “No”; the “Percentage Fluorescence Quenching, F1 Conjugate, Ab-BHQ10” value is recorded as “No”. Moreover, in series [2], the “quenching of peptide-Fl or -DFF conjugates upon addition of antibody or antibody-BHQ10” value was “no quenching”.
EPLHRS [P3]: in series [2], the “Percentage Fluorescence Quenching, DFF Conjugate, Ab-BHQ10” value is reported as “No”; the “Percentage Fluorescence Quenching, DFF Conjugate, Ab” value was “No”; the “Percentage Fluorescence Quenching, F1 Conjugate, Ab” value is reported as “No”; the “Percentage Fluorescence Quenching, F1 Conjugate, Ab-BHQ10” value was “No”. For the same molecule, in series [2], the “quenching of peptide-Fl or -DFF conjugates upon addition of antibody or antibody-BHQ10” value was “no quenching”.
As for “NT-proBNP P6-Fl: NT-proBNP peptide LEPLHRS conjugated to 5-position of fluorescein (also: conjugated to 5-position of fluorescein, peptide site not given here)”, the fluorescence quenching entry in series [2] is “approximately 10%”.
For “P1-DFF: NT-proBNP peptide AEQLALEPLHRS conjugated to 5-position of DFF (also: conjugated to 5-position of DFF, peptide site not given here)”, in series [2], the “fluorescence quenching reached (up to) by anti-NT-proBNP antibody-BHQ10” value is on record as “approximately 65%” and the “fluorescence quenching reached (up to) by anti-NT-proBNP antibody” value was “approximately 70%”.
For the molecule “P1-Fl: NT-proBNP peptide AEQLALEPLHRS conjugated to 5-position of fluorescein (also: conjugated to 5-position of fluorescein, peptide site not given here)”, in series [2], the “fluorescence quenching reached (up to) by anti-NT-proBNP antibody-BHQ10” value is recorded as 40% and the “fluorescence quenching reached (up to) by anti-NT-proBNP antibody” value is given as 70%.
With “P5-Fl: CysB peptide GELAYF conjugated to 5-position of fluorescein (also: conjugated to 5-position of fluorescein, peptide site not given here)”, in series [3] (anti-CysB mAb), the “quenching of 4′-position conjugate compared with 5-position conjugate” value is recorded as “higher quenching”.
As for “P6-DFF: CysB peptide GDELAYF conjugated to 5-position of DFF (also: conjugated to 5-position of DFF, peptide site not given here)”, the Maximum quenching in series [3] (anti-CysB-Mab, molar ratio of about 4:1) is reported as approximately 45%. The fluorescence quenching entry in series [2] is “approximately 10%”.
Take “P6-Fl: CysB peptide GDELAYF conjugated to 5-position of fluorescein (also: conjugated to 5-position of fluorescein, peptide site not given here)”: in series [3], the “quenching by anti-CysB Mab-BHQ10 relative to un-modified mAb” value is recorded as “slightly higher”. Also, the fluorescence quenching in series [3] (molar ratio of antibody to P6-Fl of about 8:1, unmodified anti-CysB-Mab) is reported as approximately 30%.
Consider “P7-Fl: CysB peptide GHDELAYF conjugated to 5-position of fluorescein (also: conjugated to 5-position of fluorescein, peptide site not given here)”, for which the “fluorescence quenching relative to P6-Fl” value in series [3] (anti-CysB-Mab) is listed as “weaker quenching”.
YQTNKAKHDELAYF [P14]: the “fluorescence intensity as a function of CysB peptide concentration” value in the series with anti-CysB Mab (peptide 0 to 3200 nM added to mixture of antibody and P6-Fl or P6-DFF, Tris buffer) is given as “a dose response was observed”.

B1: CysB full length protein: canine cystatin-B, SEQ ID NO: 1 (protein, listed as Canis familiaris)
chain: MMCGAPSASQPATADTQAIADQVKAQLEERENKKYTTFKAVTFRSQVVAGTPYFIKVQVDDDEFVHLRVFQSLPHENKPLALSSYQTNKAKHDELAYF
Consider B1, for which the “fluorescence intensity as a function of CysB full length protein concentration” value with anti-CysB Mab (added to mixture of antibody and tracer in the presence of varying concentrations of sarkosyl) is “a dose response was observed”. Further, in the series on anti-CysB Mab (antibody or antibody-BHQ10 with P6-Fl or P6-DFF, sarkosyl (1%)), the “dose response of CysB full length protein in serum” value is given as “dose response was also observed”.
